The target of assay [1] is Wee1-like protein kinase (Homo sapiens, UniProt P30291). The assay is described as follows: HeLa cell cycle G2/M accumulation – FACS, mechanism study for Wee1 degradation inhibitor project, late-stage follow-up, panel member Wee1 Degradation (AID 2088).
Assay [2] addresses G2/mitotic-specific cyclin-B1 (Homo sapiens, UniProt P14635). The assay is described as follows: HeLa cell cycle G2/M accumulation – FACS, mechanism study for Wee1 degradation inhibitor project, late-stage follow-up, panel member Cyclin B Degradation (AID 2088).
Assay [3] deals with Melanin-concentrating hormone receptor 1 (Homo sapiens, UniProt Q99705). The assay is described as follows: Late-stage fluorescence-based counterscreen for antagonists of the G-protein coupled receptor 7 (GPR7): cell-based dose response assay to identify antagonists of the melanin-concentrating hormone receptor 1 (MCHR1). [Related pubchem assays (depositor defined):AID1861, AID1880, AID1952, AID2148, AID2251, AID2257, AID485339]. The class given is functional. In general terms: Counterscreens check selectivity or assay interference.

Assay [4] can be described thus: blockers of HIV-1 ZM109 envelope-driven cell-cell fusion – HeLa effector, CEM target cells, luciferase, cherry-pick, dose response (AID 652058).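 Note: luciferase signal from HIV-1 Env mediated cell-cell fusion of effector and target cells.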 The assay is classed as functional, cell-based.
Assay [5] deals with SWI/SNF-related matrix-associated actin-dependent regulator of chromatin subfamily A member 2 (Homo sapiens, UniProt P51531). As to the kind of experiment: Luminescence-based cell-based high throughput dose response assay to identify activators of the function of SWI/SNF related, matrix associated, actin dependent regulator of chromatin, subfamily a, member 2 (SMARCA2, BRM). The assay is classed as functional.

A short description of assay [6]: viability loss in CEM21 cells – cell-based, CellTiter-Glo luminescence, cherry-picked, cytotoxicity control for viral fusion inhibitor project, dose response (AID 652042).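 Note: potency for signal decrease meaning cytotoxicity.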 The assay is classed as functional. On the technique in general: ATP-based viability assays read luminescence as a measure of living cells.
Assay [7] is described as follows: HIV-1 AD8 envelope cell-cell fusion blockers – cherry-pick, dose response (AID 652062).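 Note: luciferase signal from cell-cell fusion driven by HIV-1 clade B AD8 Env; potency is for inhibitors of fusion seen as a drop in luminescence.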 The class given is functional, cell-based.
A short description of assay [8]: blockers of HIV-1 envelope-mediated cell-cell fusion – cherry-pick, dose response (AID 652057). The class given is functional, cell-based.
Assay [9] in a line: Counterscreen for activators of the function of SWI/SNF related, matrix associated, actin dependent regulator of chromatin, subfamily a, member 2 (SMARCA2, BRM): Luminescence-based cell-based high throughput dose response assay to identify non-selective compounds using the VP16 reporter assay. The class given is functional.
Assay [10] in a line: off-target signal loss in HeLa-CEM21 co-culture – HeLa F-luc CTL cells, cherry-picked, counter-screen for HIV-1 Env fusion inhibitor project, dose response (AID 652040).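 Note: potency for signal decrease marking cytotoxic or nonspecific inhibition.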 The assay is classed as functional, cell-based.
For assay [11], the system named is SN12K1. The assay is described as follows: cells. The class given is functional. To be noted: Homo sapiens.
Assay [12] addresses Cyclin-dependent kinase 5/CDK5 activator 1 (Homo sapiens, UniProt Q00535). The assay is described as follows: blockade of human CDK5 activity – biochemical, cherry-picked samples, set 2, dose response (AID 504545).
Assay [13] deals with X-box-binding protein 1 (Homo sapiens, UniProt P17861). The assay is classed as functional, Cricetulus griseus.
X-box-binding protein 1, sequence (P17861 whole entry): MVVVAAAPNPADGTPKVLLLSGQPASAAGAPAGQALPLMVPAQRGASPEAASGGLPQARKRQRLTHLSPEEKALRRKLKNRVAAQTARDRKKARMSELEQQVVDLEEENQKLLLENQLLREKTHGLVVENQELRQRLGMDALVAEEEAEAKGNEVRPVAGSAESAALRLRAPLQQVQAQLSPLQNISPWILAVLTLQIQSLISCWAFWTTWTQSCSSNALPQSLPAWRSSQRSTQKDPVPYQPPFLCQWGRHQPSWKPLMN
Assay [14] deals with Peroxisome proliferator-activated receptor gamma/Nuclear receptor corepressor 2 (Homo sapiens, UniProt P37231+Q9Y618). The assay is classed as functional.
A short description of assay [15]: cells.
The target of assay [16] is Cytochrome P450 2C19 (Homo sapiens, UniProt P33261). As to the kind of experiment: Cytochrome panel assay with activity outcomes. Panel member name: p450-cyp2c19 Compounds with AC50 equal or less than 10 uM are considered active. The assay is classed as functional. To be noted: read-out: AC50.
Cytochrome P450 2C19, sequence (P33261 whole entry): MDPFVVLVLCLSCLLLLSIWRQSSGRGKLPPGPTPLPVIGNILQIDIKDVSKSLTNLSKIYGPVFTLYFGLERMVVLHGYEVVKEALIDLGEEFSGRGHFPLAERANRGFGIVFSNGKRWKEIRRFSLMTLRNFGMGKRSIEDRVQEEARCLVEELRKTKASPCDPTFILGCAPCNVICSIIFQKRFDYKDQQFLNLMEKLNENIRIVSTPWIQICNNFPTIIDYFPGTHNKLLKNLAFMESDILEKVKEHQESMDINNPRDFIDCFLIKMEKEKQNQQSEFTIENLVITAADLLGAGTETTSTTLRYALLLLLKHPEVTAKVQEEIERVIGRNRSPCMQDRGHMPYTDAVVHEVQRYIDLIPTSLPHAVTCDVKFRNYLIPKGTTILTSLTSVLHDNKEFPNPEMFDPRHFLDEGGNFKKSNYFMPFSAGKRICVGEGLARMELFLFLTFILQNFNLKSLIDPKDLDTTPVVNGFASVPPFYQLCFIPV
The target in assay [17] is Major prion protein (Homo sapiens, UniProt P04156). The class given is functional, cell-based.
For assay [18], the target named is Photoreceptor-specific nuclear receptor (Homo sapiens, UniProt Q9Y5X4). The assay is classed as functional.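 Note: potency for compounds that break the NR2E3 corepressor complex and count as activators.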
Assay [19] deals with Protein Rev (Human immunodeficiency virus type 1 group M subtype B (isolate HXB2)(HIV-1), UniProt P04618). As to the kind of experiment: blockers of HIV Rev/RRE RNA complex – biochemical, fluorescence polarization, HIV-1, dose response (AID 434976). More on the design: species or system Human immunodeficiency virus 1. Background: Polarisation of emitted light reports the rotation of a fluorescent probe.

Assay [20] deals with Female germline-specific tumor suppressor gld-1 (Caenorhabditis elegans, UniProt Q17339). As to the kind of experiment: blockers of GLD-1/TGE RNA complex formation – biochemical, fluorescence polarization, C. elegans, dose response (AID 2802).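 Note: fluorescence polarization of labeled TGE RNA bound by purified gld-1 protein.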
The target of assay [21] is T1, Voltage-gated N-type calcium channel alpha-1B subunit/Amyloid beta A4 precursor protein-binding family A member 1 (Homo sapiens, UniProt Q00975+Q02410). As to the kind of experiment: disruptors of Mint-PDZ/N-type channel peptide interaction – biochemical, HTRF, set 2, SAR follow-up (AID 434980). The class given is functional.
T1 sequence (Q00975 whole entry): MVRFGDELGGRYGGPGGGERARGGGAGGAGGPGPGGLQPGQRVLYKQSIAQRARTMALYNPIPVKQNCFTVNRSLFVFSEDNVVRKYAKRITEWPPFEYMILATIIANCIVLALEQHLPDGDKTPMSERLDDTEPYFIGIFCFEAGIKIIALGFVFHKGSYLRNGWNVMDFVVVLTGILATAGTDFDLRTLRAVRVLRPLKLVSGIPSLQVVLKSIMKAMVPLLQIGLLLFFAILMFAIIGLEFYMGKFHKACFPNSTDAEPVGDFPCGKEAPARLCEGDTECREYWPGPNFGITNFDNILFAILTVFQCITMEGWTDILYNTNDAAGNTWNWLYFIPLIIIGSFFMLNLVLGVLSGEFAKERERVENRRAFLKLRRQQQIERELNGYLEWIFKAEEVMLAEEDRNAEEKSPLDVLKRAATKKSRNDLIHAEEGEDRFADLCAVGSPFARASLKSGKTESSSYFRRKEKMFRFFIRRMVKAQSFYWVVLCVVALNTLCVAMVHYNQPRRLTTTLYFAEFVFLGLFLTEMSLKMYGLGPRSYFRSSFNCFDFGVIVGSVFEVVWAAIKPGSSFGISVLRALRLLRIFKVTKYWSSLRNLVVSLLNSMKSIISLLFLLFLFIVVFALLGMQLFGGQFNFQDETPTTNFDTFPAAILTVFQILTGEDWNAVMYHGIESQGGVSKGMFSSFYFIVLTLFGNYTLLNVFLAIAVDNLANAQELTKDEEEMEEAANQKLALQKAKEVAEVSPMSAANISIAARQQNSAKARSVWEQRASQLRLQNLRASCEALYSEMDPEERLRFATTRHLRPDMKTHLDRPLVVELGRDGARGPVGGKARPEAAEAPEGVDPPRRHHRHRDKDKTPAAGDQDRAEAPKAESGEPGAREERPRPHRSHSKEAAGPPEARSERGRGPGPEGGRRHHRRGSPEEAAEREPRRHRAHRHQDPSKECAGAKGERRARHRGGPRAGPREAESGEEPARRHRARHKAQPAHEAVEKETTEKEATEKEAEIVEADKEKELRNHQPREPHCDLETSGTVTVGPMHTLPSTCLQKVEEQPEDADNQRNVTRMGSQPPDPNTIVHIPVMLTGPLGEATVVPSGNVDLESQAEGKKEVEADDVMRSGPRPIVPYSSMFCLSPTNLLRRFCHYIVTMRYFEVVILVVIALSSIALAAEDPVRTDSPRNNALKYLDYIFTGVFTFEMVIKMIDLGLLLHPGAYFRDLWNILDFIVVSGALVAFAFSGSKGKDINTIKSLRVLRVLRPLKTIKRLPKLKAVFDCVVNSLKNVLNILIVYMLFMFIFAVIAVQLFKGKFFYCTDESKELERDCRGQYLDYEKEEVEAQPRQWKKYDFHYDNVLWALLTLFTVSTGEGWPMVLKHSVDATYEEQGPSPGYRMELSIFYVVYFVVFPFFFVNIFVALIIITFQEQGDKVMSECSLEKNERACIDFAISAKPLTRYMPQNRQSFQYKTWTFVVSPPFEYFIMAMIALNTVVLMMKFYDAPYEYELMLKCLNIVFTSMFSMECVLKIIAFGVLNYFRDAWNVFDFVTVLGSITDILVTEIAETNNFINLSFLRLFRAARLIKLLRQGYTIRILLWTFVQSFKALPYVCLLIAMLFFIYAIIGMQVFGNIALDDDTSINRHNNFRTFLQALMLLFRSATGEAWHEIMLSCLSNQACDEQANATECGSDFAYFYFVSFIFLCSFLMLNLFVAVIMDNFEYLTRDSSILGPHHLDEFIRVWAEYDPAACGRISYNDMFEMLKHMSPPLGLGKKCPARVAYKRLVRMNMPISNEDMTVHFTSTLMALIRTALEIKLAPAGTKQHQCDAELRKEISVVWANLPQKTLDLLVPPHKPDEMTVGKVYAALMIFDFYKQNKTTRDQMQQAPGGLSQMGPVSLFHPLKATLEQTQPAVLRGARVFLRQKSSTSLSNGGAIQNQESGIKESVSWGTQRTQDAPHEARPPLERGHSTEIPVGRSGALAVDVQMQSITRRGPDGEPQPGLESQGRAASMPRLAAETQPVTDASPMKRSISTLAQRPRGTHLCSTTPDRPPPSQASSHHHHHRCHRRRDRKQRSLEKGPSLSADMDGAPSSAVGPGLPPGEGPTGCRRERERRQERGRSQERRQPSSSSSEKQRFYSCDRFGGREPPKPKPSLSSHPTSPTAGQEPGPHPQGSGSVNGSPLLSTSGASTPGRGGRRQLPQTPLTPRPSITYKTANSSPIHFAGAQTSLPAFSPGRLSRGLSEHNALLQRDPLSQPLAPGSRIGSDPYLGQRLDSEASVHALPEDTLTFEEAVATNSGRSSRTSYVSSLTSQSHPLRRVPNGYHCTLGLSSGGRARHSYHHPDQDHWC
T1 sequence (Q02410 whole entry): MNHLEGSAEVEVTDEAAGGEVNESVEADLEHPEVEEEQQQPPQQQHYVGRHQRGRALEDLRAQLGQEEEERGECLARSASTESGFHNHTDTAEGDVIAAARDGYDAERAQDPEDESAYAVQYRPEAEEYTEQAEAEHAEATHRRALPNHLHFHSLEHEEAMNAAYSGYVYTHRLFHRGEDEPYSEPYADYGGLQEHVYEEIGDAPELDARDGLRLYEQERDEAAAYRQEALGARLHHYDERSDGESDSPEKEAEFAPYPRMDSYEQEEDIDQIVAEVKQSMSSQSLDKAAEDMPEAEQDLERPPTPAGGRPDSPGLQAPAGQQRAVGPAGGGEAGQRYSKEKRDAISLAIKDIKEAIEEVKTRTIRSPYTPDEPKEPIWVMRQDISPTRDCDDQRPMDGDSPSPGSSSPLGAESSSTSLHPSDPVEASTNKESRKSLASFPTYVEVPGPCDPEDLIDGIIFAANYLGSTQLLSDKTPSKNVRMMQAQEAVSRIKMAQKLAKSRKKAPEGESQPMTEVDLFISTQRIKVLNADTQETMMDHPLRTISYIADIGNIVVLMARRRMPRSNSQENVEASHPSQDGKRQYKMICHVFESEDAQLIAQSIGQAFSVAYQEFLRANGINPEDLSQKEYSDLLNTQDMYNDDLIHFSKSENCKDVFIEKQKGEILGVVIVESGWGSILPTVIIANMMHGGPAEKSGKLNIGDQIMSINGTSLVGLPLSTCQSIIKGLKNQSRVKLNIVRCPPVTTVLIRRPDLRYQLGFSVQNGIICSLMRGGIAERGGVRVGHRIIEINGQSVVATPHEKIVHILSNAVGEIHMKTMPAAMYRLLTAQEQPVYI
The target of assay [22] is T1, Voltage-gated N-type calcium channel alpha-1B subunit/Amyloid beta A4 precursor protein-binding family A member 1. As to the kind of experiment: disruptors of Mint-PDZ/N-type channel peptide interaction – biochemical, HTRF, SAR follow-up (AID 2489). The class given is functional.
Assay [23] deals with Neurotensin receptor type 1 (Homo sapiens, UniProt P30989). The assay is classed as functional.
Neurotensin receptor type 1, sequence (P30989 whole entry): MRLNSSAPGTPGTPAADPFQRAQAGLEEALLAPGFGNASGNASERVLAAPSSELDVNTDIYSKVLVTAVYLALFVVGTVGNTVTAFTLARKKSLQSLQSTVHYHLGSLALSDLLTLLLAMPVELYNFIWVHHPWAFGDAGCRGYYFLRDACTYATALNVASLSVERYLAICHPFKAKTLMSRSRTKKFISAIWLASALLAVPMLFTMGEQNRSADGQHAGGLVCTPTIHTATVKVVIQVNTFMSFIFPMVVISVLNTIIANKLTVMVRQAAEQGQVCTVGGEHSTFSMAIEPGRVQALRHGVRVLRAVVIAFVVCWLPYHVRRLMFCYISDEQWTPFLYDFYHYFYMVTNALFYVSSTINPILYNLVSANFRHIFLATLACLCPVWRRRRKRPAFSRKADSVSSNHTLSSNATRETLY
Assay [24] concerns the target T2, Ubiquitin-conjugating enzyme E2 N (Homo sapiens, UniProt P61088).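 Note: Dose-response confirmation in a TR-FRET assay detecting UBC13-driven polyubiquitin chain formation, inhibition measured.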
T2 sequence (P61088 whole entry): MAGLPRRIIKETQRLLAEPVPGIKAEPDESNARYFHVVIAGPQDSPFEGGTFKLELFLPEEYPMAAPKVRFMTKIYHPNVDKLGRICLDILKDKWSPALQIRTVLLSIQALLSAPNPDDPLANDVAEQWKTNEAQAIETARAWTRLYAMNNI
The assay is classed as functional.

Assay [25] is described as follows: Luminescence Cell-Based Dose Retest to Confirm Inhibitors of Cancer Stem Cells. [Related pubchem assays (depositor defined):AID2717, AID2721]. The assay is classed as functional. The settings on record: Homo sapiens.
Assay [26] has as its system INS1. As to the kind of experiment: INS-1E survival protection against cytokine death – cell-based, luminescence, retest, dose response (AID 449756).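 Note: cell death triggered by IL-1 beta plus TNF-alpha plus IFN-gamma mixture; protective hits raise ATP signal compared with cytokine alone wells.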 The assay is classed as functional. To be noted: Rattus norvegicus.
Assay [27] has as its target Lysosomal acid glucosylceramidase (Homo sapiens, UniProt P04062). As to the kind of experiment: Dose response cell-based high throughput screening assay to identify enhancers of beta-glucosidase activity. [Related pubchem assays: 784 ]. The class given is functional.
Assay [28] has as its target Beta-galactosidase (Escherichia coli, UniProt Q8VNN2). As to the kind of experiment: detection-enzyme interference by beta-gal modulators – biochemical, E. coli enzyme, set 3, artefact control for CCR6 antagonist project, dose response (AID 504712). The class given is functional.
The subject of assay [29] is Vero. As to the kind of experiment: cells. The class given is functional. To be noted: Chlorocebus sabaeus.
Assay [30] addresses Heat shock protein HSP 90-alpha (Homo sapiens, UniProt P07900). The assay is classed as functional, organism-based.
Assay [31] deals with C-C chemokine receptor type 6 (Homo sapiens, UniProt P51684). The assay is described as follows: antagonism of CCR6 beta-arrestin recruitment – cell-based, luminescent beta-arrestin readout, dose response (AID 504728). The assay is classed as functional.

Activity calls are given as the source filed them.
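Throughout, for Absolute IC50 (XBP1): confirmatory dose-response counter-screen serving a CHOP assay.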

Wee1-like protein kinase, sequence (P30291 whole entry): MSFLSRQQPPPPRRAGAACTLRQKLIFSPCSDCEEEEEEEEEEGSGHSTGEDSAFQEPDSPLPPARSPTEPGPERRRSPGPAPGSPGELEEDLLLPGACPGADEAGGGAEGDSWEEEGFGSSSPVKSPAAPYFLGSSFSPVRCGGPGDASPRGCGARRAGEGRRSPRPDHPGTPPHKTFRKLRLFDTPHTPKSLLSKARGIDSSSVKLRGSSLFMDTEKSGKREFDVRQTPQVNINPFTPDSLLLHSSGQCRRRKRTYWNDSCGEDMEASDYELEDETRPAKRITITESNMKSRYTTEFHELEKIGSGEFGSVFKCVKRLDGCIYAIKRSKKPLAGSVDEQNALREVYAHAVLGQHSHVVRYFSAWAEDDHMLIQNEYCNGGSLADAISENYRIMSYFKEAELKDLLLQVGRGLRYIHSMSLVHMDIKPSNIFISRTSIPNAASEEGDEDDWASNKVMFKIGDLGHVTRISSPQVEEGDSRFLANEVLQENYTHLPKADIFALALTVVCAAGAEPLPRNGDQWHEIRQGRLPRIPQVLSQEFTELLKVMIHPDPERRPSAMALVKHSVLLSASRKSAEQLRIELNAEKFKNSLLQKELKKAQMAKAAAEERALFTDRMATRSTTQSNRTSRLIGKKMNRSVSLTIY

Regarding `CC(C)c1ccc(NC(=O)CCCOc2cc(=O)n(C)c3ccccc23)cc1`, the EC50 in assay [1] and in assay [2] was > 49.7 µM (inactive) each time.
For the molecule `Cc1ccc(-n2ncc(Cl)c(Oc3ccccc3)c2=O)cc1`, the IC50 in [3] is 13.7 µM (inactive).
With `N#Cc1cn(C2OC(CO)C(O)C2O)c2ncnc(N)c12` (stereo unspecified), the AC50 in assay [4] was < 0.26 µM (active); in assay [6], < 0.26 µM (active); in [7], 0.621 µM (active); in [8], < 0.26 µM (active); in [10] it was 1.39 µM (active); in assay [12] it was 5.59 µM (active). The EC50 in assay [5] and in assay [9] was > 91.2 µM (inactive) each time. The GI50 in assay [11] was 0.0425 µM (active).
As for `CC(C)(C)c1ccc(NC(=O)Nc2ccc(F)cc2)cc1`, in [13], the “Absolute IC50 (XBP1)” value was found to be 10 µM.
Take `CCc1c(C(=O)O)[nH]c2ccc(Br)cc12`: the IC50 is 7.33 µM (active) in assay [14], > 138 µM (inactive) in assay [15], 5.95 µM (active) in assay [17] and 6.41 µM (active) in [18]. Besides, the AC50 in assay [16] was 11.2 µM (inconclusive).
For the molecule `Nc1c(-c2cccc([N+](=O)[O-])c2)nc2ccccn12`, the values for the 50% inhibitory concentration (IC50) in assay [19] and in assay [20] were > 75.5 µM (not active) and 7.64 µM (active), respectively.
Consider `O=C(NCCc1ccccn1)c1cc(-c2ccco2)nc2ccccc12`, for which the IC50 in assay [21] and in assay [22] was > 56.8 µM (inactive) throughout.
As to `CC(C)C[C@H]1CN=C(Nc2ccccc2)N1CC1CCC(C(C)(C)C)CC1` (stereo partly specified), the EC50 in assay [23] is 15.7 µM (active). For the same molecule, in assay [24], the IC50 was > 20 µM (inactive). Also, the results for the half-maximal activity concentration (AC50) in assay [25] and in assay [26] were 5.02 µM (active) and 6.54 µM (active), respectively.
For `CC(C)Oc1cccc(C(=O)Nc2ccccc2N2CCOCC2)c1`, in [27], the EC50 is > 50 µM (not active).
With `O=[N+]([O-])c1cccc(C=NNc2ccc3ccccc3n2)c1O`, the IC50 in assay [28] and in assay [31] was > 66.6 µM (inactive) in each case. For the same molecule, the CC50 in assay [29] is 1.44 µM (active). Besides, the AC50 in [30] was 2.76 µM (active).

One may read the EC50 as the midpoint of the concentration-response curve. As a reminder, the IC50 is the point on the concentration scale where inhibition reaches its midpoint. The AC50 is the concentration giving half of the maximal activity seen. The term GI50 denotes the concentration giving 50% growth inhibition. In general, CC50 refers to the concentration that lowers cell viability or growth by half.

For the origin of these results see ChEMBL document CHEMBL1201862, “PubChem BioAssay data set” (2004).
